Data set [1] concerns memory CD4+ T cells. The experiment in a line: Ki67 expression by whole blood flow cytometry, memory CD4+ T cells. The data set is classed as in vivo, rhesus macaque. To be noted: for Ki67 expression in memory CD4+ T cells: AZD5582 treated infant RMs. Here is the method: The ncNF-κB pathway plays an important role in regulating T cell differentiation without causing broad systemic inflammation ([22]). We have previously observed a stimulatory effect on peripheral T cells following AZD5582 treatment specifically measurable through increased intracellular Ki67 expression ([17]). To further assess the effect of AZD5582 on infant RMs, flow cytometry was performed longitudinally on whole blood on the day of doses 1, 3, 6, and 9 and both 48 to 72h and 7 days after each of these doses. These time points were selected to allow longitudinal evaluation while remaining within blood volume constraints.
Multicolor flow cytometric analysis was performed on whole blood (WB) or cell suspensions using predetermined optimal concentrations of the following fluorescently conjugated monoclonal antibodies (MAbs). For WB T cell analysis the following MAbs were used: CD3-allophycocyanin (APC)-Cy7 (clone SP34-2), CD95-phycoerythrin (PE)-Cy5 (clone DX2), Ki67-AF700 (clone B56), HLA-DR-peridinin chlorophyll protein (PerCP)-Cy5.5 (clone G46-6), CCR7-fluorescein isothiocyanate (FITC) (clone 150503), CCR5-APC (clone 3A9), CD62L (clone SK11), and CD45-RA-PE-Cy7 (clone L45) from BD Biosciences; CD8-BV711 (clone RPA-T8), CD4-BV650 (clone OKT4), and PD-1-BV421 (clone EH12.2H7) from BioLegend; and CD28-ECD (clone CD28-2) from Beckman-Coulter. Flow cytometric acquisition and analysis of samples were performed on at least 100,000 events on an AURORA flow cytometer driven by the SpectroFlo software package (Cytek). Analyses of the acquired data were performed using FlowJo version 10.0.4 software (TreeStar).

In data set [2] the test system is SIV gag DNA in CD4+ T cells. The experiment in a line: Cell-associated SIV DNA / RNA in CD4+ T cells. The data set is classed as in vivo. To be noted: before dose 1, 3dp- and 2wp-AZD5582 treatment, infant RMs. The method, then:
Plasma viral quantification was performed as described previously ([12]). The frozen cell pellet was lysed with proteinase K (100 μg/mL in 10 mM Tris-HCl pH 8) for 1h at 56°C. Quantification of SIVmac gag DNA was performed by quantitative PCR (qPCR) using the 5′ nuclease (TaqMan) assay with an ABI7500 system (PerkinElmer Life Sciences). The sequence of the forward primer for SIVmac gag was 5′-[…]-3′, the reverse primer sequence was 5′-[…]-3′, and the probe sequence was 5′-6-carboxyfluorescein (FAM)-[…]-6-carboxytetramethylrhodamine (TAMRA)-3′. 7.5 μL of cell lysate were mixed in a 50 μL reaction mixture containing 1× Platinum Buffer, 3.5 mM MgCl2, 0.2 mM dNTP, primers 200 nM, probe 150 nM, and 2U Platinum Taq. For cell number quantification, quantitative PCR was performed simultaneously for monkey albumin gene copy number. The sequence of the forward primer for albumin was F 5′-[…]-3′; the reverse primer sequence was 5′- ATGGTCGCCTGTTCACCAA-3′ and the probe sequence was 5′-[…]-3′ ([34]). The reactions were performed on a 7500 real-time PCR system (Applied Biosystems) with the following thermal program: 10 min at 95°C, followed by 40 cycles of denaturation at 95°C for 15 s and annealing at 60°C for 1 min.

Data set [3] in a line: Tolerability of repeated AZD5582 infusions in infant RMs. The data set is classed as in vivo. As to conditions: 0.1 mg/kg i.v., 10 infusions. The method, then:
The IAPi AZD5582 was reconstituted to 0.4 mg/mL in 10% Captisol within 1 week of administration as previously described ([17]). Monkeys assigned to the experimental intervention group received 10 administrations of 0.1 mg/kg AZD5582 by intravenous (i.v.) infusion with an inline filter for 30 minutes every week for 10 weeks.
EDTA-anticoagulated blood samples were collected regularly and used for a complete blood count, routine chemical analysis, and immunostaining, with plasma separated by centrifugation within 1 h of phlebotomy. PBMCs were prepared by density gradient centrifugation. Lymph node biopsy specimens were collected at indicated time points (Fig. 2A). Lymph nodes were ground using a 70-μm cell strainer. Cell suspensions were washed and immediately used for immunostaining or cryopreserved at −80°C until use.

For data set [4], the system named is CD4+ T cells from SIV-infected, ART-suppressed adult RMs. The experiment in a line: Ex vivo viral RNA induction assay, adult CD4+ T cells. The data set is classed as cell-based, rhesus macaque. As to conditions: 100 nM, 9 days, in presence of DTG+FTC. An excerpt:
Following confirmation of ncNF-κB pathway activation in infant naive and memory CD4^+ T cells ex vivo, we next sought to evaluate SIV reactivation following ex vivo AZD5582 stimulation in CD4^+ T cells isolated from SIV-infected, ART-suppressed infant RMs compared to CD4^+ T cells from SIV-infected, ART-suppressed adult RMs. To do so, we isolated CD4^+ T cells through negative selection from the peripheral blood of five SIV-infected, ART-suppressed adult RMs and five SIV-infected, ART-suppressed infant RMs. Cells were stimulated with either 100 nM AZD5582 or rhesus specific anti-CD2/CD3/CD28 beads (as a positive control) in the presence of ART (DTG+FTC) for 9 days. The supernatant was collected to quantify SIVgag RNA through qPCR as a measure of viral reactivation.
Viable cryopreserved PBMCs from SIV-infected, ART-suppressed infant and adult RMs collected 34 to 97 weeks post ART initiation were thawed, and CD4^+ T cells were enriched by negative selection using the NHP CD4^+ T cell isolation kit (Miltenyi Biotec). […] The viral RNA content of frozen cell-free culture supernatants collected on day 9 was determined using the SIVgag qPCR described above.

Consider one molecule from article PMC9006931, “Altered Response Pattern following AZD5582 Treatment of SIV-Infected, ART-Suppressed Rhesus Macaque Infants” (Journal of Virology, 2022).

With `CN[C@@H](C)C(=O)N[C@H](C(=O)N1CCC[C@H]1C(=O)N[C@H]1c2ccccc2C[C@H]1OCC#CC#CCO[C@@H]1Cc2ccccc2[C@@H]1NC(=O)[C@@H]1CCCN1C(=O)[C@@H](NC(=O)[C@H](C)NC)C1CCCCC1)C1CCCCC1` [AZD5582], the “Mean Ki67 expression in peripheral memory CD4+ T cells” value in data set [1] (3-days post-AZD5582 (doses 1, 3, 6, 9), P = 0.02) is 28.4%; in data set [1] (baseline (immediately before doses 1, 3, 6, 9)), 21.0%. For the same molecule, the “Ki67 expression in memory CD4+ T cells” value is recorded as 46.9% in data set [1] (7 days following dose 1) and 8.7% in data set [1] (before the increase seen after dose 1). Moreover, the “Other markers of activation, including HLA-DR and PD-1” value in data set [1] (T cells following AZD5582 treatment, infant RMs) is recorded as “did not observe increases”. Also, the “Average increase of Ki67 expression in memory CD4+ T cells after dose 1” value in data set [1] (relative to three baseline measurements, treated infant RMs) stood at 24.3%. In addition, the “Cell-associated SIV RNA in peripheral CD4+ T cells” value in data set [2] is reported as “remained stable”. For the same molecule, the “Tolerability / clinical adverse events” value in data set [3] was “well-tolerated and safe”. Besides, the “Animals whose CD4+ T cell cultures showed increased SIV RNA expression in supernatant” value in data set [4] is recorded as 3/5.
